Test system: gene expression in etiolated eto1-4 seedlings
Assay: Transcriptional profiling (ATH1 GeneChip microarray) of etiolated eto1-4 seedlings
Assay type: in vivo, Arabidopsis thaliana
Method: For chemical treatments, seeds were sown on 0.5×MS agar medium supplemented with 10 μM chemicals (AVG, compounds 9393, 9370, and 7303) or DMSO (as control). Arabidopsis seeds were stratified in the dark at 4° C. for 4 days, then germinated in the dark for 3 days at 22° C. Approximately 2,000 etiolated seedlings of the wild type or eto1-4 were used to collect tissues for preparation of total RNA in each microarray experiment with Arabidopsis ATH1 GeneChip (Affymetrix). Extraction of RNA followed an established protocol (Chang, et al. (1993) Plant Mol. Biol. Rep. 11, 113-117). Total RNA (10 μg) was used to prepare biotinylated cRNA for hybridization to ATH1 GeneChip in the experiments disclosed herein. Experiments were repeated by 2 independent biological duplicates, and candidate genes present in both experiments were selected for further analysis. The MASS method was used for data analysis and normalization by all sample medium. Candidate genes were selected by the following criteria. First, genes with 1.5-fold differential expression between the wild type and eto1-4 were selected as the master gene pool, which was then used for comparison in treatments with AVG and individual exemplary compounds. Data were presented in hierarchical clustering and Venn diagram format. Agilent GeneSpring GX and Bioconductor software were used to analyze the expression profile data. Gene Ontology descriptions were generated by GeneSpring GX and further referred to the TAR GO database. Raw data are available in the GEO database (http://www.ncbi.nlm.nih.gov/geo) with Accession no. GSE20897.
The filtered and normalized expression data set from 22810 probes on the ATH1 Genechip was used for hierarchical clustering of gene expression profiles for comparison between AVG and the exemplary invention compounds in eto1-4. It was identified that 1,446 genes show at least 1.5-fold difference in expression between the WT and eto1-4 and used them as the master gene pool for clustering analysis (FIG. 7A). […] These genes likely contribute to the etiolated phenotype of eto1-4 by responding to elevated endogenous ethylene. To determine whether the exemplary compounds have specific r overlapping functions with AVG to suppress the eto1-4 phenotype, genes that are regulated by individual exemplary invention compounds and AVG for Venn diagram analysis were clustered (FIG. 7B). More than 63% of genes (356/561 for compound 9393; 389/561 for compound 9370; 399/561 for compound 7303; FIG. 7B) with expression associated with AVG were co-regulated by the exemplary invention compounds, which indicates an overlap function in suppression of the ethylene phenotype in eto1-4. […] Next genes co-regulated by all of the exemplary invention compounds and AVG were examined by performing a clustering analysis using the co-regulated genes identified in FIG. 7B: 356 (compound 9393 vs AVG), 389 (compound 9370 vs AVG) and 399 genes (compound 7303 vs AVG). It was uncovered that 276 genes were co-regulated by all of the exemplary invention compounds and AVG (FIG. 7C and Table 2). On the basis of GO descriptions generated by Gene Spring GX and TAIR database, the 276 genes were divided into subgroups related to their biological functions (Table 2). […] In addition, stress- and pathogenesis-related genes were among the co-regulated genes, possibly because ethylene is involved in both biotic and abiotic stresses.
Genes (1446 non-redundant loci) were selected by 1.5-fold differential expression between eto1-4 and WT as the master pool for analysis. These genes were used for comparison between chemical treatments by AVG and the exemplary invention compounds. The finalized 276 genes that are co-regulated by AVG and all of the exemplary invention compounds are shown. Locus ID also present in Nemhauser et al. (Nemhauser, et al. (2006) Cell 126, 467-475).

[1] = of 1446 genes differentially expressed between WT and eto1-4, 10 μM
[2] = ratio eto1-4 treated to eto1-4 (no treatment)

Cc1ccc(C2CC(=O)c3cnc(NC4CCCC4)nc3C2)cc1 (centres unmarked) [Compound 9370]
number of genes co-regulated with AVG (of 561 genes associated with AVG, 10 μM): 389 genes | number of genes regulated (expression reverted close to WT) [1]: 728 genes | percentage of genes regulated (expression reverted close to WT) [1]: 50.3% | number of genes regulated specifically, not related to AVG treatment (of all genes regulated by the compound (629, 728, 650), 10 μM): 339 genes | Signal Fold Change AT1G03457, unknown biological function [2]: 2.50 | Signal Fold Change AT1G03660, unknown biological function [2]: 2.61 | Signal Fold Change AT1G05010 ACC oxidase [2]: 0.28 | Signal Fold Change AT1G05760 jacalin lectin protein [2]: 3.58 | Signal Fold Change AT1G06720 expressed protein [2]: 1.28 | Signal Fold Change AT1G07280, unknown biological function [2]: 0.51 | Signal Fold Change AT1G07560 leucine-rich repeat protein kinase [2]: 2.24 | Signal Fold Change AT1G08650 phosphoenolpyruvate carboxylase kinase [2]: 2.03 | Signal Fold Change AT1G08990 glycogenin glucosyltransferase [2]: 2.25 | Signal Fold Change AT1G09530 phytochrome interacting factor 3 [2]: 0.28 | Signal Fold Change AT1G10760 starch excess protein (SEX1) [2]: 0.33 | Signal Fold Change AT1G13430, response to cytokinin stimulus, sulfotransferase protein [2]: 0.28 | Signal Fold Change AT1G14540 anionic peroxidase [2]: 0.53 | Signal Fold Change AT1G15380 lactoylglutathione lyase [2]: 2.66 | Signal Fold Change AT1G17970, unknown biological function [2]: 2.50 | Signal Fold Change AT1G18880 proton-dependent oligopeptide transport (POT) protein [2]: 1.93 | Signal Fold Change AT1G20190, cell wall organization and biogenesis, expansin (EXP11) [2]: 0.31 | Signal Fold Change AT1G22740 Ras-related protein (RAB7) [2]: 2.62 | Signal Fold Change AT1G23060, unknown biological function [2]: 0.36 | Signal Fold Change AT1G26930, unknown biological function [2]: 0.47 | Signal Fold Change AT1G27380 p21-rho-binding domain-containing protein [2]: 1.96 | Signal Fold Change AT1G29520, unknown biological function [2]: 1.93 | Signal Fold Change AT1G30750, unknown biological function [2]: 2.58 | Signal Fold Change AT1G31710 copper amine oxidase [2]: 4.67 | Signal Fold Change AT1G32410 vacuolar protein sorting 55 protein [2]: 2.06 | Signal Fold Change AT1G32560 late embryogenesis abundant group 1 domain-containing protein [2]: 1.59 | Signal Fold Change AT1G33470, unknown biological function [2]: 2.21 | Signal Fold Change AT1G33790, unknown biological function [2]: 0.18 | Signal Fold Change AT1G34040, unknown biological function [2]: 2.08 | Signal Fold Change AT1G35350, unknown biological function [2]: 4.97 | Signal Fold Change AT1G35612, unknown biological function [2]: 3.56 | Signal Fold Change AT1G42470, unknown biological function [2]: 4.28 | Signal Fold Change AT1G44800, unknown biological function [2]: 1.93 | Signal Fold Change AT1G44830 AP2-containing transcription factor [2]: 0.34 | Signal Fold Change AT1G48480 leucine-rich repeat trans-membrane protein kinase [2]: 2.68 | Signal Fold Change AT1G49660 expressed protein [2]: 0.34 | Signal Fold Change AT1G50560 cytochrome P450 [2]: 2.32 | Signal Fold Change AT1G52830 auxin-responsive protein [2]: 5.14 | Signal Fold Change AT1G56010 transcription activator NAC1 [2]: 2.65 | Signal Fold Change AT1G56020, unknown biological function [2]: 0.50 | Signal Fold Change AT1G58070, unknown biological function [2]: 2.32 | Signal Fold Change AT1G59590, unknown biological function [2]: 3.53 | Signal Fold Change AT1G59740 proton-dependent oligopeptide transport (POT) protein [2]: 0.39 | Signal Fold Change AT1G62290 aspartyl protease protein [2]: 0.27 | Signal Fold Change AT1G62510 lipid transfer protein [2]: 2.17 | Signal Fold Change AT1G62620, unknown biological function [2]: 2.47 | Signal Fold Change AT1G64200 V-ATPase E subunit [2]: 2.41 | Signal Fold Change AT1G65510, unknown biological function [2]: 2.74 | Signal Fold Change AT1G65920, unknown biological function [2]: 0.31 | Signal Fold Change AT1G66230 myb transcription factor (MYB20) [2]: 2.70 | Signal Fold Change AT1G67030 zinc finger (C2H2 type) protein [2]: 7.63 | Signal Fold Change AT1G68230, unknown biological function [2]: 2.55 | Signal Fold Change AT1G68520 zinc finger (B-box type) protein [2]: 2.74 | Signal Fold Change AT1G69570 Dof-type zinc finger-containing protein [2]: 3.22 | Signal Fold Change AT1G70210 cyclin delta-1 [2]: 3.28 | Signal Fold Change AT1G70850 Bet v I allergen protein [2]: 9.49 | Signal Fold Change AT1G70890 major latex protein [2]: 5.19 | Signal Fold Change AT1G71030 myb transcription factor (MYB2) [2]: 5.41 | Signal Fold Change AT1G71740, unknown biological function [2]: 2.84 | Signal Fold Change AT1G72230 plastocyanin like protein [2]: 3.09 | Signal Fold Change AT1G73220 sugar transporter protein [2]: 3.97 | Signal Fold Change AT1G73300 serine carboxypeptidase S10 protein [2]: 2.36 | Signal Fold Change AT1G73310 serine carboxypeptidase S10 protein [2]: 2.66 | Signal Fold Change AT1G73330 protease inhibitor [2]: 4.31 | Signal Fold Change AT1G73590 auxin efflux carrier protein [2]: 2.08 | Signal Fold Change AT1G73640, small GTPase mediated signal transduction, Ras-related GTP-binding protein [2]: 2.10 | Signal Fold Change AT1G73830 bHLH protein [2]: 0.37 | Signal Fold Change AT1G75500, unknown biological function [2]: 3.37 | Signal Fold Change AT1G76220, unknown biological function [2]: 3.55 | Signal Fold Change AT1G76500, photomorphogenesis, DNA-binding protein [2]: 0.42 | Signal Fold Change AT1G76540 cell division control protein [2]: 2.53 | Signal Fold Change AT1G76790, unknown biological function [2]: 3.90 | Signal Fold Change AT1G78240 dehydration-responsive protein [2]: 0.47 | Signal Fold Change AT1G80380 phosphoribulokinase [2]: 2.14 | Signal Fold Change AT2G01910, microtubule nucleation, microtubule associated protein (MAP65/ASE1) protein [2]: 2.62 | Signal Fold Change AT2G02820 myb transcription factor (MYB88) [2]: 4.00 | Signal Fold Change AT2G02850 plantacyanin [2]: 0.23 | Signal Fold Change AT2G16580 auxin-responsive protein [2]: 2.83 | Signal Fold Change AT2G16990, unknown biological function [2]: 2.79 | Signal Fold Change AT2G19590 ACC oxidase [2]: 0.28 | Signal Fold Change AT2G19970, unknown biological function [2]: 3.06 | Signal Fold Change AT2G20080, unknown biological function [2]: 3.75 | Signal Fold Change AT2G20670, unknown biological function [2]: 2.45 | Signal Fold Change AT2G21820, unknown biological function [2]: 0.85 | Signal Fold Change AT2G21880 Ras-related GTP-binding protein [2]: 3.99 | Signal Fold Change AT2G22860 phytosulfokines 2 (PSK2) [2]: 2.67 | Signal Fold Change AT2G24150 expressed protein (response to hormone stimulus) [2]: 2.23 | Signal Fold Change AT2G25900 zinc finger (CCCH-type) protein [2]: 1.48 | Signal Fold Change AT2G26070 expressed protein (response to ethylene stimulus) [2]: 0.28 | Signal Fold Change AT2G26440 pectinesterase protein [2]: 0.38 | Signal Fold Change AT2G26740 epoxide hydrolase [2]: 0.23 | Signal Fold Change AT2G27140 heat shock protein [2]: 2.43 | Signal Fold Change AT2G27370, unknown biological function [2]: 2.26 | Signal Fold Change AT2G28305, unknown biological function [2]: 3.16 | Signal Fold Change AT2G28410, unknown biological function [2]: 2.92 | Signal Fold Change AT2G29340 short-chain dehydrogenase [2]: 0.30 | Signal Fold Change AT2G29440, toxin catabolic process, glutathione S-transferase [2]: 0.20 | Signal Fold Change AT2G30360 CBL-interacting protein kinase 11 (CIPK11) [2]: 2.02 | Signal Fold Change AT2G33380 calcium-binding RD20 protein [2]: 0.21 | Signal Fold Change AT2G33990, unknown biological function [2]: 2.72 | Signal Fold Change AT2G34300, unknown biological function [2]: 0.33 | Signal Fold Change AT2G34500 cytochrome P450 [2]: 4.05 | Signal Fold Change AT2G34510, unknown biological function [2]: 2.70 | Signal Fold Change AT2G34700, unknown biological function [2]: 1.03 | Signal Fold Change AT2G35300 late embryogenesis abundant group 1 domain-containing protein [2]: 1.92 | Signal Fold Change AT2G35710 glycogenin glucosyltransferase [2]: 2.23 | Signal Fold Change AT2G36350 protein kinase [2]: 0.55 | Signal Fold Change AT2G36410, unknown biological function [2]: 2.60 | Signal Fold Change AT2G37130 peroxidase 21 [2]: 2.23 | Signal Fold Change AT2G38760, unknown biological function [2]: 4.10 | Signal Fold Change AT2G38790, unknown biological function [2]: 1.99 | Signal Fold Change AT2G39010 aquaporin [2]: 2.05 | Signal Fold Change AT2G39310, unknown biological function [2]: 2.73 | Signal Fold Change AT2G39980, unknown biological function [2]: 0.14 | Signal Fold Change AT2G40420 amino acid transporter [2]: 2.03 | Signal Fold Change AT2G41090, unknown biological function [2]: 0.19 | Signal Fold Change AT2G41230, unknown biological function [2]: 0.07 | Signal Fold Change AT2G42320, unknown biological function [2]: 0.53 | Signal Fold Change AT2G43050 pectinesterase protein [2]: 2.35 | Signal Fold Change AT2G43535 trypsin inhibitor [2]: 6.13 | Signal Fold Change AT2G44110 seven transmembrane MLO protein [2]: 0.39 | Signal Fold Change AT2G44130 kelch repeat containing F-box protein [2]: 3.39 | Signal Fold Change AT2G47510 fumarate hydratase [2]: 0.43 | Signal Fold Change AT2G47550 pectinesterase protein [2]: 0.39 | Signal Fold Change AT2G48030, unknown biological function [2]: 2.61 | Signal Fold Change AT3G04010 glycosyl hydrolase [2]: 1.98 | Signal Fold Change AT3G05990, signal transduction, phosphodiesterase leucine-rich repeat protein [2]: 2.15 | Signal Fold Change AT3G09020, unknown biological function [2]: 3.28 | Signal Fold Change AT3G09780 protein kinase [2]: 0.50 | Signal Fold Change AT3G10080, unknown biological function [2]: 2.52 | Signal Fold Change AT3G10340 phenylalanine ammonia-lyase [2]: 1.94 | Signal Fold Change AT3G11550, unknown biological function [2]: 2.39 | Signal Fold Change AT3G12030, DNA repair, expressed protein [2]: 2.17 | Signal Fold Change AT3G12500 basic endocexemplary inase [2]: 1.91 | Signal Fold Change AT3G13980, unknown biological function [2]: 6.74 | Signal Fold Change AT3G14370 protein kinase [2]: 0.30

Source: US8481459B2, “Chemical inhibitors of ethylene biosynthesis” (Academia Sinica, priority 2010, dated 2013)
